For experiment [1], the target named is purified recombinant human GAC (GLS1) (Homo sapiens (Human), UniProt O94925). As to the kind of experiment: GLS1 Enzymatic Activity Assay (dual-coupled enzymatic assay, resorufin/Amplex UltraRed readout).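 Also: glutamate from GAC coupled via glutamate oxidase and peroxidase to resorufin, read as fluorescence (ex 530, em 590 nm) kinetically or at 20 min, four-parameter logistic IC50 fit.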 Type of experiment: biochemical.
For another experiment, the system named is A549 cells. As to the kind of experiment: Proliferation Assay (A549 viability, Cell Titer Fluor, 72 hours). To be noted: Homo sapiens, A549, 72 h. Type of experiment: cell-based. The gist of the method:
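A549 cells seeded at 1000 cells/well, rested 24 h, then exposed to compound in 0.5% DMSO for 72 h at 37 °C. Viability read by Cell Titer Fluor fluorescence; IC50 from four-parameter logistic fit.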

purified recombinant human GAC (GLS1), sequence (O94925 other isoform, or with tags, fused parts or gaps): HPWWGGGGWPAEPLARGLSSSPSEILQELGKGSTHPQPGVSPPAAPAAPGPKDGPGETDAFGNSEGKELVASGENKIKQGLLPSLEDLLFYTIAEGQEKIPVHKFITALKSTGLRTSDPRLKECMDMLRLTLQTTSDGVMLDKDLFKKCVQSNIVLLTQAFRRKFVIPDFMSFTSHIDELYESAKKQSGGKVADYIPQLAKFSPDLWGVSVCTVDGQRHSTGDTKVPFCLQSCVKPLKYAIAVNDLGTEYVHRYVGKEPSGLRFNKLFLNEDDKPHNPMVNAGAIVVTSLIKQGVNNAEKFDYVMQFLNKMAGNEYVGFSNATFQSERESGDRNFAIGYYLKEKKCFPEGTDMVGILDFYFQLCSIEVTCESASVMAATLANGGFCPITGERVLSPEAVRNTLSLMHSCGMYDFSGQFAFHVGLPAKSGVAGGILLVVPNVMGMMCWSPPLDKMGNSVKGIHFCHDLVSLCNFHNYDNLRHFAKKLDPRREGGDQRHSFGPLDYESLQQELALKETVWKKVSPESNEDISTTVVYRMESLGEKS

Take `O=C(CN1CC(F)(F)C1)Nc1cn(CC(F)CCn2cc(C(=O)NCc3cc(OC(F)(F)F)ccc3F)nn2)nn1` (stereo not shown) [Example 390, 1-(4-{4-[2-(3,3-difluoroazetidin-1-yl)acetamido]-1H-1,2,3-triazol-1-yl}-3-fluorobutyl)-N-{[2-fluoro-5-(trifluoromethoxy)phenyl]methyl}-1H-1,2,3-triazole-4-carboxamide]: the concentration for half-maximal inhibition (IC50) in experiment [1] was below 100 nM. The half-maximal effective concentration (EC50) in the experiment on A549 cells is below 100 nM.

For `O=C(CN1CC(F)(F)C1)Nc1cn(CC(F)CCn2cc(C(=O)NCc3cccc(OC(F)(F)F)c3)nn2)nn1` (stereo not shown) [Example 391, 1-(4-{4-[2-(3,3-difluoroazetidin-1-yl)acetamido]-1H-1,2,3-triazol-1-yl}-3-fluorobutyl)-N-{[3-(trifluoromethoxy)phenyl]methyl}-1H-1,2,3-triazole-4-carboxamide], the IC50 in experiment [1] is below 100 nM. In addition, the half-maximal effective concentration (EC50) in the experiment with A549 cells lay within 100 to 500 nM.

In the case of `O=C(CN1CC(F)(F)C1)Nc1cn(CC(F)CCn2cc(C(=O)NCc3ccccn3)nn2)nn1` (stereo not shown) [Example 392, 1-(4-{4-[2-(3,3-difluoroazetidin-1-yl)acetamido]-1H-1,2,3-triazol-1-yl}-3-fluorobutyl)-N-(pyridin-2-ylmethyl)-1H-1,2,3-triazole-4-carboxamide], the IC50 in experiment [1] is 500 to 5000 nM. In the experiment on A549 cells, the EC50 was above 5000 nM.

On to `Cc1ccc(CNC(=O)c2cn(CCC(F)Cn3cc(NC(=O)CN4CC(F)(F)C4)nn3)nn2)cn1` (stereo not shown) [Example 393, 1-(4-{4-[2-(3,3-difluoroazetidin-1-yl)acetamido]-1H-1,2,3-triazol-1-yl}-3-fluorobutyl)-N-[(6-methylpyridin-3-yl)methyl]-1H-1,2,3-triazole-4-carboxamide], for which the half-maximal inhibitory concentration (IC50) in experiment [1] was 500 to 5000 nM. Besides, in the experiment on A549 cells, the half-maximal effective concentration (EC50) fell in the range of 500 to 5000 nM.

As to `O=C(Cc1cccc(OC(F)(F)F)c1)Nc1cn(CC(F)CCn2cc(C(=O)NCc3cc(C(F)(F)F)ccn3)nn2)nn1` (stereo not shown) [Example 394], the IC50 in experiment [1] is below 100 nM. Besides, in the experiment on A549 cells, the EC50 was below 100 nM.

In the case of `O=C(Cc1cc(OC(F)(F)F)ccc1F)Nc1cn(CC(F)CCn2cc(C(=O)NCc3cc(C(F)(F)F)ccn3)nn2)nn1` (stereo not shown) [Example 395, 1-[3-fluoro-4-(4-{2-[2-fluoro-5-(trifluoromethoxy)phenyl]acetamido}-1H-1,2,3-triazol-1-yl)butyl]-N-{[4-(trifluoromethyl)pyridin-2-yl]methyl}-1H-1,2,3-triazole-4-carboxamide], in experiment [1], the IC50 was below 100 nM. Also, in the experiment on A549 cells, the concentration giving a half-maximal response (EC50) was below 100 nM.

As for `Cc1ccc(CNC(=O)c2cn(CC(F)CCn3cc(NC(=O)Cc4cccc(OC(F)(F)F)c4)nn3)nn2)cn1` (stereo not shown) [Example 396, 1-[2-fluoro-4-(4-{2-[3-(trifluoromethoxy)phenyl]acetamido}-1H-1,2,3-triazol-1-yl)butyl]-N-[(6-methylpyridin-3-yl)methyl]-1H-1,2,3-triazole-4-carboxamide], in experiment [1], the IC50 was below 100 nM. Moreover, the EC50 in the experiment on A549 cells was below 100 nM.

In the case of `CNC(=O)c1cn(CC(F)CCc2nnc(NC(=O)Cc3cc(-c4cccc(OC(F)(F)F)c4)ccn3)s2)nn1` (stereo not shown) [Example 397, 1-(2-fluoro-4-(5-(2-(4-(3-(trifluoromethoxy)phenyl)pyridin-2-yl)acetamido)-1,3,4-thiadiazol-2-yl)butyl)-N-methyl-1H-1,2,3-triazole-4-carboxamide 2,2,2-trifluoroacetate], the IC50 in experiment [1] was below 100 nM. The 50% effective concentration (EC50) in the experiment on A549 cells was below 100 nM.

On to `O=C(Cc1cc(OC(F)(F)F)ccc1F)Nc1cn(CCC(F)Cn2cc(C(=O)NCc3ccccn3)nn2)nn1` (stereo not shown) [Example 398, 1-[2-fluoro-4-(4-{2-[2-fluoro-5-(trifluoromethoxy)phenyl]acetamido}-1H-1,2,3-triazol-1-yl)butyl]-N-(pyridin-2-ylmethyl)-1H-1,2,3-triazole-4-carboxamide], for which, in experiment [1], the half-maximal inhibitory concentration (IC50) is below 100 nM. Moreover, in the experiment with A549 cells, the half-maximal effective concentration (EC50) was below 100 nM.

In the case of `O=C(Cc1ccccn1)Nc1cn(CC(F)CCn2cc(C(=O)NCc3cc(C(F)(F)F)ccn3)nn2)nn1` (stereo not shown) [Example 399, 1-(3-fluoro-4-{4-[2-(pyridin-2-yl)acetamido]-1H-1,2,3-triazol-1-yl}butyl)-N-{[4-(trifluoromethyl)pyridin-2-yl]methyl}-1H-1,2,3-triazole-4-carboxamide], the IC50 in experiment [1] was below 100 nM. Besides, the EC50 in the experiment with A549 cells lay within 100 to 500 nM.

Regarding `Cc1ccc(CC(=O)Nc2cn(CC(F)CCn3cc(C(=O)NCc4cc(C(F)(F)F)ccn4)nn3)nn2)cn1` (stereo not shown) [Example 400, 1-(3-fluoro-4-{4-[2-(6-methylpyridin-3-yl)acetamido]-1H-1,2,3-triazol-1-yl}butyl)-N-{[4-(trifluoromethyl)pyridin-2-yl]methyl}-1H-1,2,3-triazole-4-carboxamide], the IC50 in experiment [1] is below 100 nM. The same compound yielded an EC50 in the experiment with A549 cells of 100 to 500 nM.

Consider `O=C(CN1CC(F)C1)Nc1cn(CC(F)CCn2cc(C(=O)NCc3cc(C(F)(F)F)ccn3)nn2)nn1` (stereo not shown) [Example 401, 1-(3-fluoro-4-{4-[2-(3-fluoroazetidin-1-yl)acetamido]-1H-1,2,3-triazol-1-yl}butyl)-N-{[4-(trifluoromethyl)pyridin-2-yl]methyl}-1H-1,2,3-triazole-4-carboxamide], for which, in experiment [1], the IC50 fell in the range of 100 to 500 nM. The half-maximal effective concentration (EC50) with A549 cells lay within 500 to 5000 nM.

Consider `O=C(CN1CC(F)(F)C1)Nc1cn(CC(F)CCn2cc(C(=O)NCc3cc(C(F)(F)F)ccn3)nn2)nn1` (stereo not shown) [Example 402, 1-(4-{4-[2-(3,3-difluoroazetidin-1-yl)acetamido]-1H-1,2,3-triazol-1-yl}-3-fluorobutyl)-N-{[4-(trifluoromethyl)pyridin-2-yl]methyl}-1H-1,2,3-triazole-4-carboxamide], for which, in experiment [1], the IC50 is 100 to 500 nM. Besides, in the experiment with A549 cells, the concentration giving a half-maximal response (EC50) was 500 to 5000 nM.

Consider `O=C(Cc1cccc(OC(F)(F)F)c1)Nc1cn(CCC(F)Cn2cc(C(=O)NCc3ccccn3)nn2)nn1` (stereo not shown) [Example 403, 1-[2-fluoro-4-(4-{2-[3-(trifluoromethoxy)phenyl]acetamido}-1H-1,2,3-triazol-1-yl)butyl]-N-(pyridin-2-ylmethyl)-1H-1,2,3-triazole-4-carboxamide], for which the IC50 in experiment [1] is below 100 nM. In addition, the concentration for a half-maximal effect (EC50) in the experiment on A549 cells is below 100 nM.

Turning to `O=C(Cc1cc(OC(F)(F)F)ccc1F)Nc1cn(CCC(F)Cn2cc(C(=O)NCc3cc(OC(F)(F)F)ccc3F)nn2)nn1` (stereo not shown) [Example 404, 1-[2-fluoro-4-(4-{2-[2-fluoro-5-(trifluoromethoxy)phenyl]acetamido}-1H-1,2,3-triazol-1-yl)buty]-N-{[2-fluoro-5-(trifluoromethoxy)phenyl]methyl}-1H-1,2,3-triazole-4-carboxamide], the half-inhibitory concentration (IC50) in experiment [1] was below 100 nM. Further, in the experiment with A549 cells, the EC50 is below 100 nM.

With `Cc1ccc(CC(=O)Nc2cn(CCC(F)Cn3cc(C(=O)NCc4cc(OC(F)(F)F)ccc4F)nn3)nn2)cn1` (stereo not shown) [Example 405, 1-(2-fluoro-4-{4-[2-(6-methylpyridin-3-yl)acetamido]-1H-1,2,3-triazol-1-yl}butyl)-N-{[2-fluoro-5-(trifluoromethoxy)phenyl]methyl}-1H-1,2,3-triazole-4-carboxamide], the IC50 in experiment [1] is below 100 nM. This compound yielded an EC50 in the experiment on A549 cells below 100 nM.

For the compound `O=C(Cc1cccc(OC(F)(F)F)c1)Nc1cn(CCC(F)Cn2cc(C(=O)NCc3ncccc3F)nn2)nn1` (stereo not shown) [Example 406, 1-[2-fluoro-4-(4-{2-[3-(trifluoromethoxy)phenyl]acetamido}-1H-1,2,3-triazol-1-yl)butyl]-N-[(3-fluoropyridin-2-yl)methyl]-1H-1,2,3-triazole-4-carboxamide], in experiment [1], the 50% inhibitory concentration (IC50) was below 100 nM. Also, the half-maximal effective concentration (EC50) in the experiment with A549 cells was below 100 nM.

Regarding `O=C(Cc1cccc(OC(F)(F)F)c1)Nc1cn(CCC(F)Cn2cc(C(=O)NCc3cc(C(F)(F)F)ccn3)nn2)nn1` (stereo not shown) [Example 407, 1-[2-fluoro-4-(4-{2-[3-(trifluoromethoxy)phenyl]acetamido}-1H-1,2,3-triazol-1-yl)butyl]-N-{[4-(trifluoromethyl)pyridin-2-yl]methyl}-1H-1,2,3-triazole-4-carboxamide], in experiment [1], the concentration for half-maximal inhibition (IC50) was below 100 nM. In addition, in the experiment with A549 cells, the half-maximal effective concentration (EC50) is below 100 nM.

Regarding `O=C(Cc1cccc(OC(F)(F)F)c1)Nc1cn(CCC(F)Cn2cc(C(=O)NCc3cccc(OC(F)(F)F)c3)nn2)nn1` (stereo not shown) [Example 408, 1-[2-fluoro-4-(4-{2-[3-(trifluoromethoxy)phenyl]acetamido}-1H-1,2,3-triazol-1-yl)butyl]-N-{[3-(trifluoromethoxy)phenyl]methyl}-1H-1,2,3-triazole-4-carboxamide], the IC50 in experiment [1] was below 100 nM. In the experiment on A549 cells, this compound showed an EC50 below 100 nM.

For `O=C(CN1CC(F)C1)Nc1cn(CC(F)CCn2cc(C(=O)NCc3ncccc3F)nn2)nn1` (stereo not shown) [Example 409, 1-(3-fluoro-4-{4-[2-(3-fluoroazetidin-1-yl)acetamido]-1H-1,2,3-triazol-1-yl}butyl)-N-[(3-fluoropyridin-2-yl)methyl]-1H-1,2,3-triazole-4-carboxamide], in experiment [1], the IC50 is 500 to 5000 nM. Also, the EC50 in the experiment on A549 cells is above 5000 nM.

Consider `O=C(CN1CC(F)(F)C1)Nc1cn(CC(F)CCn2cc(C(=O)NCc3ncccc3F)nn2)nn1` (stereo not shown) [Example 410, 1-(4-{4-[2-(3,3-difluoroazetidin-1-yl)acetamido]-1H-1,2,3-triazol-1-yl}-3-fluorobutyl)-N-[(3-fluoropyridin-2-yl)methyl]-1H-1,2,3-triazole-4-carboxamide], for which the 50% inhibitory concentration (IC50) in experiment [1] fell in the range of 500 to 5000 nM. In the experiment with A549 cells, this compound registered a 50% effective concentration (EC50) of 500 to 5000 nM.

As for `O=C(Cc1cccc(OC(F)(F)F)c1)Nc1cn(CC(F)CCn2cc(C(=O)NCc3ccc(C(F)(F)F)nc3)nn2)nn1` (stereo not shown) [Example 411, 1-[3-fluoro-4-(4-{2-[3-(trifluoromethoxy)phenyl]acetamido}-1H-1,2,3-triazol-1-yl)butyl]-N-{[6-(trifluoromethyl)pyridin-3-yl]methyl}-1H-1,2,3-triazole-4-carboxamide], in experiment [1], the 50% inhibitory concentration (IC50) is below 100 nM. Further, the EC50 in the experiment on A549 cells was below 100 nM.

Turning to `O=C(Cc1cc(OC(F)(F)F)ccc1F)Nc1cn(CC(F)CCn2cc(C(=O)NCc3ccc(C(F)(F)F)nc3)nn2)nn1` (stereo not shown) [Example 412, 1-[3-fluoro-4-(4-{2-[2-fluoro-5-(trifluoromethoxy)phenyl]acetamido}-1H-1,2,3-triazol-1-yl)butyl]-N-{[6-(trifluoromethyl)pyridin-3-yl]methyl}-1H-1,2,3-triazole-4-carboxamide], in experiment [1], the IC50 is below 100 nM. Moreover, the EC50 with A549 cells was below 100 nM.

The values are drawn from patent US10344025B2, “GLS1 inhibitors for treating disease” (Board of Regents, The University of Texas System, priority 2014, dated 2019).
